In patent US20240101531A1, “PYRIDINAMINE DERIVATIVES AND THEIR USE AS POTASSIUM CHANNEL MODULATORS” (Xenon Pharmaceuticals Inc., priority 2022, published 2024):
pEC50: −log10 of the molar value. Structures can show the parent of a compound that is named as a salt.

The molecules below were run against human KV7.2/KV7.3 (Homo sapiens (Human), UniProt O43525+O43526) (assay: Potassium flux assay (IPG-2 AM dye)). Details: TREX HEK 293 or HEK 293 cells expressing human KV7.2/KV7.3; arithmetic mean values.
Assay type: cell-based
Method in brief: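 HEK 293 or TREX HEK 293 cells stably expressing human KV7.2/KV7.3 (tetracycline-induced where needed), loaded with IPG-2 AM, then compound for 20 min at room temperature. Flux triggered by K challenge buffer (10 mM KCl, pH 7.4), read at 530/558 nm; EC50 from 16-point 2-fold series from 30 μM, normalised to DMSO and reference modulator.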

`Cc1ccc(Nc2nccc3cc(OCC4(F)CC4)ccc23)cn1` [Example 190, 6-((1-fluorocyclopropyl)methoxy)-N-(6-methylpyridin-3-yl)isoquinolin-1-amine] and `Cc1ccc(Nc2nccc3cc(OCC4COC4)ccc23)cn1` [Example 214, N-(6-methylpyridin-3-yl)-6-(oxetan-3-ylmethoxy)isoquinolin-1-amine] fall in the same range of pEC50: 5.00 to 6.00 for the first, 5.00 to 6.00 for the second.

`CS(=O)(=O)CCCOc1ccc2c(Nc3ccc(Cl)nc3)nccc2c1` [Example 191, N-(6-chloropyridin-3-yl)-6-(3-(methylsulfonyl)propoxy)isoquinolin-1-amine] and `Clc1ccc(Nc2nccc3cc(OCc4ncco4)ccc23)cn1` [Example 211, N-(6-chloropyridin-3-yl)-6-(oxazol-2-ylmethoxy)isoquinolin-1-amine] fall in the same range of pEC50: 5.00 to 6.00 for the first, 5.00 to 6.00 for the second.

First: Clc1ccc(Nc2nccc3cc(OCc4ccncc4)ccc23)cn1 [Example 192, N-(6-chloropyridin-3-yl)-6-(pyridin-4-ylmethoxy)isoquinolin-1-amine]
Second: Cc1ccc(Nc2nccc3cc(OCc4ccncc4)ccc23)cn1 [Example 200, N-(6-methylpyridin-3-yl)-6-(pyridin-4-ylmethoxy)isoquinolin-1-amine]
The pEC50 of the first is higher: over 6.00 for the first, 5.00 to 6.00 for the second.

`Clc1ccc(Nc2nccc3cc(OCc4ncccn4)ccc23)cn1` [Example 193, N-(6-chloropyridin-3-yl)-6-(pyrimidin-2-ylmethoxy)isoquinolin-1-amine] and `Clc1ccc(Nc2nccc3cc(OCc4nccs4)ccc23)cn1` [Example 212, N-(6-chloropyridin-3-yl)-6-(thiazol-2-ylmethoxy)isoquinolin-1-amine] fall in the same range of pEC50: 5.00 to 6.00 for the first, 5.00 to 6.00 for the second.

`Cc1ccc(COc2ccc3c(Nc4ccc(Cl)nc4)nccc3c2)cn1` [Example 194, N-(6-chloropyridin-3-yl)-6-((6-methylpyridin-3-yl)methoxy)isoquinolin-1-amine] and `Clc1ccc(Nc2nccc3cc(OCc4cccnc4)ccc23)cn1` [Example 195, N-(6-chloropyridin-3-yl)-6-(pyridin-3-ylmethoxy)isoquinolin-1-amine] cannot be ordered by pEC50: over 6.00 for the first, over 6.00 for the second.

First: Cn1cc(COc2ccc3c(Nc4ccc(Cl)nc4)nccc3c2)cn1 [Example 196, N-(6-chloropyridin-3-yl)-6-((1-methyl-1H-pyrazol-4-yl)methoxy)isoquinolin-1-amine]
Second: Cc1cn(C)nc1COc1ccc2c(Nc3ccc(Cl)nc3)nccc2c1 [Example 204, N-(6-chloropyridin-3-yl)-6-((1,4-dimethyl-1H-pyrazol-3-yl)methoxy)isoquinolin-1-amine]
The pEC50 of the first is higher: over 6.00 for the first, 5.00 to 6.00 for the second. The first is the more potent here.

`Clc1ccc(Nc2nccc3cc(OC4CCOCC4)ccc23)cn1` [Example 197, N-(6-chloropyridin-3-yl)-6-((tetrahydro-2H-pyran-4-yl)oxy)isoquinolin-1-amine] and `Clc1ccc(Nc2nccc3cc(OC4CCCOC4)ccc23)cn1` (centres unmarked) [Example 216, N-(6-chloropyridin-3-yl)-6-((tetrahydro-2H-pyran-3-yl)oxy)isoquinolin-1-amine] cannot be ordered by pEC50: over 6.00 for the first, over 6.00 for the second.

Compared with `Cn1ccnc1COc1ccc2c(Nc3ccc(Cl)nc3)nccc2c1` [Example 198, N-(6-chloropyridin-3-yl)-6-((1-methyl-1H-imidazol-2-yl)methoxy)isoquinolin-1-amine], `Clc1ccc(Nc2nccc3cc(OCc4ccon4)ccc23)cn1` [Example 215, N-(6-chloropyridin-3-yl)-6-(isoxazol-3-ylmethoxy)isoquinolin-1-amine] is higher in pEC50: 5.00 to 6.00 for the first, over 6.00 for the second. The second is the more potent here.

First: Cc1ncc(Nc2nccc3cc(OCc4ccncc4)ccc23)cn1 [Example 199, N-(2-methylpyrimidin-5-yl)-6-(pyridin-4-ylmethoxy)isoquinolin-1-amine]
Second: Clc1ncc(Nc2nccc3cc(OCc4ccncc4)ccc23)cn1 [Example 202, N-(2-chloropyrimidin-5-yl)-6-(pyridin-4-ylmethoxy)isoquinolin-1-amine]
The pEC50 of the first is lower: 5.00 to 6.00 for the first, over 6.00 for the second.

Compared with `Clc1ccc(Nc2nccc3cc(OCCN4CCOCC4)ccc23)cn1` [Example 201, N-(6-chloropyridin-3-yl)-6-(2-morpholinoethoxy)isoquinolin-1-amine], `Clc1ccc(Nc2nccc3cc(OCC4COC4)ccc23)cn1` [Example 223, N-(6-chloropyridin-3-yl)-6-(oxetan-3-ylmethoxy)isoquinolin-1-amine] is higher in pEC50: 5.00 to 6.00 for the first, over 6.00 for the second. The second is the more potent here.

First: Cn1ccc(COc2ccc3c(Nc4cnc(Cl)nc4)nccc3c2)n1 [Example 203, N-(2-chloropyrimidin-5-yl)-6-((1-methyl-1H-pyrazol-3-yl)methoxy)isoquinolin-1-amine]
Second: Cc1ncc(Nc2nccc3cc(OCc4ccn(C)n4)ccc23)cn1 [Example 206, 6-((1-methyl-1H-pyrazol-3-yl)methoxy)-N-(2-methylpyrimidin-5-yl)isoquinolin-1-amine]
The pEC50 of the first is higher: over 6.00 for the first, 5.00 to 6.00 for the second. The first is the more potent here.

First: Cc1ncc(Nc2nccc3cc(OCc4cnn(C)c4)ccc23)cn1 [Example 205, 6-((1-methyl-1H-pyrazol-4-yl)methoxy)-N-(2-methylpyrimidin-5-yl)isoquinolin-1-amine]
Second: Cc1ncc(Nc2nccc3cc(OCc4ccon4)ccc23)cn1 [Example 222, 6-(isoxazol-3-ylmethoxy)-N-(2-methylpyrimidin-5-yl)isoquinolin-1-amine]
The pEC50 of the first is higher: over 6.00 for the first, 5.00 to 6.00 for the second. The first is the more potent here.

`N#CC1(COc2ccc3c(Nc4cnc(Cl)nc4)nccc3c2)CC1` [Example 207, 1-(((1-((2-chloropyrimidin-5-yl)amino)isoquinolin-6-yl)oxy)methyl)cyclopropane-1-carbonitrile] and `N#CC1(COc2ccc3c(Nc4cnc(Cl)nc4)nccc3c2)COC1` [Example 208, 3-(((1-((2-chloropyrimidin-5-yl)amino)isoquinolin-6-yl)oxy)methyl)oxetane-3-carbonitrile] cannot be ordered by pEC50: over 6.00 for the first, over 6.00 for the second.

`CC1(C)CC(COc2ccc3c(Nc4ccc(Cl)nc4)nccc3c2)O1` (centres unmarked) [Example 209, N-(6-chloropyridin-3-yl)-6-((4,4-dimethyloxetan-2-yl)methoxy)isoquinolin-1-amine] and `Clc1ccc(Nc2nccc3cc(OCC4CCCO4)ccc23)cn1` (centres unmarked) [Example 217, N-(6-chloropyridin-3-yl)-6-((tetrahydrofuran-2-yl)methoxy)isoquinolin-1-amine] fall in the same range of pEC50: 5.00 to 6.00 for the first, 5.00 to 6.00 for the second.

`CC1(COc2ccc3c(Nc4ccc(Cl)nc4)nccc3c2)COC1` [Example 210, N-(6-chloropyridin-3-yl)-6-((3-methyloxetan-3-yl)methoxy)isoquinolin-1-amine] and `COC1(COc2ccc3c(Nc4ccc(Cl)nc4)nccc3c2)COC1` [Example 220, N-(6-chloropyridin-3-yl)-6-((3-methoxyoxetan-3-yl)methoxy)isoquinolin-1-amine] cannot be ordered by pEC50: over 6.00 for the first, over 6.00 for the second.

First: Clc1ncc(Nc2nccc3cc(OCC4COC4)ccc23)cn1 [Example 213, N-(2-chloropyrimidin-5-yl)-6-(oxetan-3-ylmethoxy)isoquinolin-1-amine]
Second: Cc1ncc(Nc2nccc3cc(OCC4COC4)ccc23)cn1 [Example 221, N-(2-methylpyrimidin-5-yl)-6-(oxetan-3-ylmethoxy)isoquinolin-1-amine]
The pEC50 of the first is higher: over 6.00 for the first, 5.00 to 6.00 for the second. The first is the more potent here.

First: Cc1ncc(Nc2nccc3cc(OCC4(C)COC4)ccc23)cn1 [Example 218, 6-((3-methyloxetan-3-yl)methoxy)-N-(2-methylpyrimidin-5-yl)isoquinolin-1-amine]
Second: COC1(COc2ccc3c(Nc4cnc(C)nc4)nccc3c2)COC1 [Example 219, 6-((3-methoxyoxetan-3-yl)methoxy)-N-(2-methylpyrimidin-5-yl)isoquinolin-1-amine formate]
The pEC50 of the first is higher: over 6.00 for the first, 5.00 to 6.00 for the second.

First: C[C@@](O)(COc1ccc2c(Nc3ccc(Cl)nc3)nccc2c1)C(F)(F)F [Example 224, (R)-3-((1-((6-chloropyridin-3-yl)amino)isoquinolin-6-yl)oxy)-1,1,1-trifluoro-2-methylpropan-2-ol]
Second: C[C@](O)(COc1ccc2c(Nc3ccc(Cl)nc3)nccc2c1)C(F)(F)F [Example 225, (S)-3-((1-((6-chloropyridin-3-yl)amino)isoquinolin-6-yl)oxy)-1,1,1-trifluoro-2-methylpropan-2-ol]
The pEC50 of the first is higher: over 6.00 for the first, 5.00 to 6.00 for the second. The first is the more potent here.

First: NC(COc1ccc2c(Nc3ccc(Cl)nc3)nccc2c1)C(F)(F)F (centres unmarked) [Example 226, 6-(2-amino-3,3,3-trifluoropropoxy)-N-(6-chloropyridin-3-yl)isoquinolin-1-amine]
Second: FC(F)(F)C1(COc2ccc3c(Nc4ccc(Cl)nc4)nccc3c2)CC1 [Example 231, N-(6-chloropyridin-3-yl)-6-((1-(trifluoromethyl)cyclopropyl)methoxy)isoquinolin-1-amine formate]
The pEC50 of the first is lower: 5.00 to 6.00 for the first, over 6.00 for the second. The second is the more potent here.

Compared with `FC1(F)CN[C@@H](COc2ccc3c(Nc4ccc(Cl)nc4)nccc3c2)C1` [Example 227, (R)—N-(6-chloropyridin-3-yl)-6-((4,4-difluoropyrrolidin-2-yl)methoxy)isoquinolin-1-amine trifluoroacetate], `Clc1ccc(Nc2nccc3cc(NCC4CC4)ccc23)cn1` [Example 230, N^1-(6-chloropyridin-3-yl)-N^6-(cyclopropylmethyl)isoquinoline-1,6-diamine formate] is lower in pEC50: 5.00 to 6.00 for the first, 4.52 to 5.00 for the second. The first is the more potent here.

Compared with `Cc1ncc(Nc2nccc3cc(OCC4(C#N)COC4)ccc23)cn1` [Example 228, 3-(((1-((2-methylpyrimidin-5-yl)amino)isoquinolin-6-yl)oxy)methyl)oxetane-3-carbonitrile], `Cc1ncc(Nc2nccc3c(F)c(OCC4CC4)ccc23)cn1` [Example 233, 6-(cyclopropylmethoxy)-5-fluoro-N-(2-methylpyrimidin-5-yl)isoquinolin-1-amine] is lower in pEC50: 5.00 to 6.00 for the first, 4.52 to 5.00 for the second. The first is the more potent here.

`Fc1c(OCC2CC2)ccc2c(Nc3ccc(Cl)nc3)nccc12` [Example 229, N-(6-chloropyridin-3-yl)-6-(cyclopropylmethoxy)-5-fluoroisoquinolin-1-amine] and `Fc1c(NCC2CC2)ccc2c(Nc3ccc(Cl)nc3)nccc12` [Example 232, N^1-(6-chloropyridin-3-yl)-N^6-(cyclopropylmethyl)-5-fluoroisoquinoline-1,6-diamine] fall in the same range of pEC50: 5.00 to 6.00 for the first, 5.00 to 6.00 for the second.
